Assay results from PubChem BioAssay (NCI).
“And” between values parts separate entries of the source, which are not always exact repeats. Identical values can stand only once.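 These data come from cells grown in 96-well plates and exposed to compound for 48 hours at five concentrations. Abbreviation: GI50, concentration required for 50% inhibition of growth. At the TGI there is no net growth.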

The compounds below were run on MDA-MB-468 breast (assay: NCI tumour cell line growth inhibition, 48 h).
`Cc1cc2nc(-c3c(N)ncc(C#N)c3-c3ccc(Cl)cc3)[nH]c2cc1C` gave a GI50 of 12400 nM and a TGI of 51500 nM.
`CNCCNc1nc2ccccc2c2c(=O)c3cc(F)ccc3sc12` showed a GI50 of 1700 nM and a TGI of 3460 nM.
`CC[C@]1(O)C[C@@H]2CN(CCc3c([nH]c4ccccc34)[C@@](C(=O)OC)(c3cc4c(cc3OC)N(C)[C@H]3[C@@](O)(C(N)=O)[C@H](O)[C@]5(CC)[C@@H]6C[C@@H]6CN6CC[C@]43[C@@H]65)C2)C1` was tested, and the GI50 was < 3.33 nM and the TGI was 262 nM.
In the case of `CC(C)(C)n1cc(-c2ccnc(NCCCNS(=O)(=O)c3ccc(Br)cc3)c2)c(-c2cccc(O)c2)n1`, the GI50 is reported as 2100 nM and the TGI is reported as 4800 nM.
With `N=c1ccc2nc3c(cc(N)c4ccccc43)oc-2c1` the GI50 was 86.5 nM and the TGI was 423 nM.
`Oc1c(CN2CCCC2)cc(CSCc2ccccc2)c2cccnc12` gave a GI50 of 1200 nM and a TGI of 3240 nM.
For `COc1cc2c(c(OC)c1OC)-c1ccc(O)c(=O)cc1[C@@H](NC(C)=O)CC2`, the GI50 was 4110 nM and the TGI was 27500 nM.
`COc1cc(/C=C2\CN(C(=O)CCN3CCC(=NO)CC3)C/C(=C\c3cc(OC)c(OC)c(OC)c3)C2=O)cc(OC)c1OC` was tested, and the GI50 was 342 nM and the TGI was 1270 nM.
For `CCCCCCNC(=O)Oc1ccc(/C(=C(/C)Cc2ccc(OC)cc2)c2ccc(OCCN(C)C)cc2)cc1`, the GI50 was 5400 nM and the TGI was 10600 nM.
`Clc1ccc2c(c1)C(N1CCNCC1)=Nc1ccccc1O2` was tested, and the GI50 was 1220 nM and the TGI was 2480 nM.
`CC1(C)[C@@H](OC(N)=O)C=C[C@]2(CO)[C@H]3CC[C@]4(C)[C@@H](c5ccc(=O)oc5)[C@@H](Cl)C[C@]4(O)C3=CC[C@@H]12` showed a GI50 of 14.9 nM and a TGI of 67.4 nM.
For `CC(=O)c1cc(-c2ccccc2N)n(-c2ccc3c(c2)OCO3)c1C`, the GI50 was 50.7 nM and the TGI was > 72100 nM.
`C[C@]12CC[C@@H](OC(=O)N(CCCl)N=O)C[C@@H]1CC[C@@H]1[C@@H]2CC[C@]2(C)C(=O)CC[C@@H]12` was tested, and the GI50 was 867 nM and the TGI was 12300 nM.
For `Cn1cc(C2=C(c3cn(C)c4cc(N)ccc34)C(=O)NC2=O)c2ccccc21`, the GI50 was 1560 nM and the TGI was 7970 nM.
For `CC[C@@]12C=CCN3CC[C@]4(c5cc(NC(=O)COc6cc(OCC(=O)Nc7cc8c(cc7OC)N(C)[C@H]7[C@@](O)(C(=O)OC)[C@H](OC(C)=O)[C@]9(CC)C=CCN%10CC[C@]87[C@@H]%109)cc7oc(-c8ccccc8)cc(=O)c67)c(OC)cc5N(C)[C@@H]4[C@](O)(C(=O)OC)[C@H]1OC(C)=O)[C@H]32`, the GI50 was 2250 nM and the TGI was 8870 nM.
`COc1ccc([C@@H](O)c2cc(-c3ncnc4cc(N5CCOCC5)ccc34)c(F)cc2Cl)nn1` was tested, and the GI50 was 1690 nM and the TGI was 8260 nM.
With `CCCCNC(=O)Oc1ccc(/C(=C(/CC)Cc2ccccc2)c2ccc(OCCN3CCCCCC3)cc2)cc1` the GI50 was 21500 nM and the TGI was 46900 nM.
`CCN1C(=O)N(CC)C2SC(N/N=C/c3ccc(F)cc3)=NC21` (centres undefined) was tested, and the GI50 was 400 nM.
In the case of `CCCCCCNC(=O)n1cc(F)c(=O)[nH]c1=O`, the GI50 is reported as 10000 nM and the TGI is reported as 26300 nM.
With `COc1ccc(NC(=O)n2nc(/C=C\c3ccc(O)c(OC)c3)cc2/C=C\c2ccc(O)c(OC)c2)cc1` the GI50 was 3550 nM and the TGI was 21600 nM.
For `C/C(=C(/c1ccc(O)cc1)c1ccc(Cl)cc1)c1ccccc1`, the GI50 was 601 nM and the TGI was 2020 nM.
`C[PH+](c1nc2ccccc2nc1[PH+](C)C(C)(C)C)C(C)(C)C.C[PH+](c1nc2ccccc2nc1[PH+](C)C(C)(C)C)C(C)(C)C.[Au+].[Cl-]` (centres undefined) showed a GI50 of 24.8 nM and a TGI of 90.4 nM.
For `CCOC(=O)Nc1nc2cc(OCC)ccc2s1`, the GI50 was 2620 nM and the TGI was > 100000 nM.
In the case of `CC(=O)c1cccc(-c2cccc(-c3ccn(CCN4CCOCC4)n3)c2)c1`, the GI50 is reported as 15200 nM and the TGI is reported as > 20000 nM.
`COc1ccc(/C=C\c2cc(OC)c(OC)c(OC)c2)c(NS(=O)(=O)c2ccc(Cl)cc2)c1O` was tested, and the GI50 was 36.7 nM and the TGI was 15000 nM.
In the case of `CC[C@H](Nc1nc(N)nc(C2CC2)c1C#N)c1nc2cccc(NCc3ccc(C(=O)NO)cc3)c2c(=O)n1-c1ccccc1`, the GI50 is reported as 1730 nM and the TGI is reported as 4870 nM.
`CC12CC=CCC1CCC1C2CCC2(C)C(c3ccc(=O)oc3)CCC12O` (centres undefined) was tested, and the GI50 was 276 nM and the TGI was 858 nM.
With `COc1cc2ncnc3c2cc1OCCCCCN(C)Cc1ccc(Br)cc1N3` the GI50 was 46.3 nM and 39.3 nM and the TGI was 400 nM and 453 nM.
`COC(=O)[C@H]1[C@H]2C[C@@H]3c4[nH]c5cc(OC)ccc5c4CCN3C[C@H]2C[C@@H](OC(=O)/C=C/c2cc(OC)c(OC)c(OC)c2)[C@@H]1OC` gave a GI50 of 3270 nM and a TGI of 11600 nM.
In the case of `CC(C(=O)O)c1ccc(-c2ccccc2)c(F)c1` (centres undefined), the GI50 is reported as > 100000 nM and the TGI is reported as > 100000 nM.
In the case of `Oc1c(Cl)cc(Cl)cc1Sc1cc(Cl)cc(Cl)c1O`, the GI50 is reported as 2810 nM and 2590 nM and the TGI is reported as 8850 nM and 7830 nM.
For `NC(=O)c1c(NC(=O)c2ccccc2C(F)(F)F)sc2c1CCC(=O)C2`, the GI50 was 2250 nM and the TGI was 6090 nM.
Work on `CNCCNc1nc2ccccc2c2c(=O)c3cc(OC)ccc3sc12` yielded a GI50 of 1490 nM and a TGI of 3030 nM.
In the case of `CCCCN(CCCC)CCc1c(C)cc(C)c(CCN(CCCC)CCCC)c1O`, the GI50 is reported as 1830 nM and the TGI is reported as 5510 nM.
`Cc1cnc(Nc2ccc(OCCN3CCCC3)cc2)nc1Nc1cccc(S(=O)(=O)NC(C)(C)C)c1` was tested, and the GI50 was 74.1 nM and 483 nM and the TGI was 792 nM and 3110 nM.
